# Target: T1, Wee1 (Homo sapiens, UniProt P30291)
# T1 construct: endogenous in cells; host or cells: HeLa
# Test: Cell assay for Wee1 inhibitory activity (cell-based ELISA, phospho-cdc2(Tyr15))
# Settings: Hela cells synchronized using aphidicolin; phosphorylation level of cdc2 (Tyr15) by sandwich ELISA
# Description: Cell Assay for Wee1 Inhibitory Activity
# Wee1 inhibitory activity can be measured using a cell-based ELISA assay. Hela cells are synchronized using aphidicolin, which blocks the entry of cells into S-phase. Cells in G2-M transition phase are then obtained by releasing the cells from aphidicolin treatment for approximately 7-9 hrs. The phosphorylation level of the Wee1 target cdc2 may then be measured by sandwich ELISA using an anti-cdc2 antibody and an anti-phospho-cdc2(Tyr15) antibody. This cell assay was used to calculate a pIC50 for the compounds described in Examples 2, 3, and 19.
# T1 sequence (P30291 whole entry): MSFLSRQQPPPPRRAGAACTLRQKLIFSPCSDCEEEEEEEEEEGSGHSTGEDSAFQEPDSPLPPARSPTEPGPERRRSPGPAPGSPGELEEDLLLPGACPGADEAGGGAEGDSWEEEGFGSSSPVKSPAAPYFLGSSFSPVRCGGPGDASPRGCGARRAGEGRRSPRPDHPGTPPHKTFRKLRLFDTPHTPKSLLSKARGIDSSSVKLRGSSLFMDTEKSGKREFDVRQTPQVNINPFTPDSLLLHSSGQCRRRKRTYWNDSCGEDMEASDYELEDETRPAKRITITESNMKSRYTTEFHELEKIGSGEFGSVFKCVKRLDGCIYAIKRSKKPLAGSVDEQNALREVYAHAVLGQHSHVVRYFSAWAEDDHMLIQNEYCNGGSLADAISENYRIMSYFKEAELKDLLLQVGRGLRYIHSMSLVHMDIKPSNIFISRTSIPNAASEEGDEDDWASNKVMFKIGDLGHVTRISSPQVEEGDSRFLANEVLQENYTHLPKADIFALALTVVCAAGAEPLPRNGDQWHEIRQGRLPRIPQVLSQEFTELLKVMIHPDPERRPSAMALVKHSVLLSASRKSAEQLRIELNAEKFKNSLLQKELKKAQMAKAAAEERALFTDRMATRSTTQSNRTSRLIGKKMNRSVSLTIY
row,IC50 [µM],SMILES
1,≤ 10,"CCN(CC)CCOc1ccc(Nc2ncc(Br)c(Nc3ccccc3OC)n2)cc1 [Example 2, 5-bromo-N^2-(4-{[2-(diethylamino)ethyl]oxy}phenyl)-N^4-[2-(methyloxy)phenyl]-2,4-pyrimidinediamine]"
2,≤ 10,"CCC(C)NC(=O)c1ccccc1Nc1nc(Nc2cccc(CCN3CCOCC3)c2)ncc1Br (stereo not drawn) [Example 3, 2-{[5-bromo-2-({3-[2-(4-morpholinyl)ethyl]phenyl}amino)-4-pyrimidinyl]amino}-N-(1-methylpropyl)benzamide]"
3,≤ 10,"COc1ccccc1Nc1nc(Nc2cccc(OCCN(C)C)c2)ncc1Br [Example 19, 5-bromo-N^2-(3-{[2-(dimethylamino)ethyl]oxy}phenyl)-N^4-[2-(methyloxy)phenyl]-2,4-pyrimidinediamine]"
